Inconclusive results are not listed. Calls of active or inactive are those of the source. No rule for the calls is given here.
Target: Zinc finger protein mex-5 (Caenorhabditis elegans) (UniProt Q9XUB2)
Experiment: retest of MEX-5 TCR-2 binding inhibitors, confirmation, biochemical, C. elegans, fluorescence polarization, dose retest (AID 449745);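 also: potency is for blocking Mex-5 binding to labeled TCR2 RNA like unlabeled competitor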
Conditions: Mex-5 / TCR-2 RNA binding

Sequence of Zinc finger protein mex-5 (Caenorhabditis elegans) (Q9XUB2 whole entry, looked up): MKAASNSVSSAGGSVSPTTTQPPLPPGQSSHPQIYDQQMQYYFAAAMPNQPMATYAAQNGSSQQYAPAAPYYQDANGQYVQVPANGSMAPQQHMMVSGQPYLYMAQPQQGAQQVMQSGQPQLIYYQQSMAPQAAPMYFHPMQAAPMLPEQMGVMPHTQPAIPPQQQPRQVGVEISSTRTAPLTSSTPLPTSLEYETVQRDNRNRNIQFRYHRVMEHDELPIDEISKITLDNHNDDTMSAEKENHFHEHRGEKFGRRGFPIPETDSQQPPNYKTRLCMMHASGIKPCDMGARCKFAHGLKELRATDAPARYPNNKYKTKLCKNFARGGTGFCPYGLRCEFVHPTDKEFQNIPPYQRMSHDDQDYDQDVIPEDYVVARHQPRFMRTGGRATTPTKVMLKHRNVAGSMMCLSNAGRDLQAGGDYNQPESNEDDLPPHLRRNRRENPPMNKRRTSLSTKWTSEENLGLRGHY

Structure (SMILES)	AC50
Cc1cc(=O)[nH]c(SCc2nc3ccc([N+](=O)[O-])cc3[nH]2)n1	16.6 µM
CCOC(=O)c1c(-c2ccccc2)oc2ccc(OCC(=O)NNC(=O)CCC(=O)O)cc12	15.1 µM
CCCCn1c(O)c(N=Nc2ccccn2)c2ccccc21	24.2 µM
Cc1nn2c(N)csc2nc1=O	30 µM
NC1=NC(=O)/C(=C\C=C\c2ccccc2)S1	> 38 µM (inactive)
C#CCN1C(=O)S/C(=C\c2ccc(-c3ccc(Cl)c(C(=O)O)c3)o2)C1=O	> 38 µM (inactive)
COc1ccccc1N1C(C)=CC(=C(C#N)c2nc3ccccc3s2)C=C1C	13.4 µM
O=C(c1ccc(Cl)cc1)C1C2C(=O)N(c3ccccc3)C(=O)C2C2CCCN21 (stereo not drawn)	19.8 µM
Nc1ccc2nc3c(=O)n(CCc4ccccc4)c(=O)[nH]c3nc2c1	3.43 µM
COc1ccc(OC)c(N2C(=O)NC(=O)/C(=C\c3ccc([N+](=O)[O-])s3)C2=O)c1	16.1 µM
O=c1[nH]n2c(=O)c3c([nH]c2c1N=Nc1ccccc1)CCC3	< 0.3 µM
O=C1NC(=O)N(c2ccccc2)C(=O)/C1=C/c1ccc([N+](=O)[O-])s1	23.7 µM
CCNC(=S)N/N=C/c1sc(N2CCCCC2)nc1-c1cccs1	10 µM
COc1ccccc1-n1c(C)nc2cc(C(=O)NCc3ccc4c(c3)OCO4)ccc21	> 38 µM (inactive)
O=c1[nH]c(/C=C/c2cccc3ccccc23)nc2ccccc12	> 38 µM (inactive)
O=C(Cc1c(O)c2ccccc2oc1=O)c1ccc(C(F)(F)F)cc1	37.5 µM
Cc1cccc(-n2c(O)c(/C=N/Nc3nc4c(c(=O)n(C)c(=O)n4C)n3C)c(=O)[nH]c2=S)c1	7.45 µM
O=[As](O)(O)c1ccc(N=Nc2ccc(O)cc2)cc1	37.5 µM
CN1/C(=C\C=C2C(=O)NC(=O)NC2=O)C(C)(C)c2ccccc21	> 38 µM (inactive)
O=C(Nc1nc2c(s1)CN(Cc1ccccc1)CC2)c1cccc(S(=O)(=O)N2CCc3ccccc32)c1	> 38 µM (inactive)
Cc1cccc(C2Nc3ccccc3C(=O)N2NC(=O)c2ccc([N+](=O)[O-])cc2)n1 (stereo not drawn)	8.47 µM
O=C(c1nc2ccc(Cl)cn2c1CN1CCC[C@H]1CO)N1CCCCCCC1	27.3 µM
Cn1c(=O)c(Nc2ccc(Cl)cc2)c2c3c(cccc31)C(=O)c1ccccc1-2	1.63 µM
Cc1cc(C(=O)NNC(=O)CCCCC(=O)NNC(=O)c2cc(C)[nH]n2)n[nH]1	< 0.3 µM
COc1cccc(N=Nc2c(N)[nH][nH]c2=O)c1	10.3 µM
CC1(OC(=O)C2CCCC2)C(=O)C=C2C=C(c3ccc(C#N)cc3)OC=C2C1=O (stereo not drawn)	9.38 µM

Structure (SMILES)	AC50
COc1cccc(CN2C(=O)c3cccc(N)c3C2=O)c1	32 µM
CCOc1ccc(-c2c(C#N)c(N)nc3sc(C(=O)c4ccccc4)c(N)c23)cc1	35.5 µM
NC(=S)N/N=C/c1cccc(O)c1O	21.2 µM
COc1cc(C(=O)NC(=S)NNC(=O)c2cnccn2)cc(OC)c1OC	< 0.3 µM
Cc1nnc(N2C(=O)C(O)=C(C(=O)c3ccco3)C2c2ccc(C(C)C)cc2)s1 (stereo not drawn)	37.2 µM
O=C(N/N=C/c1cc2c(cc1Cl)OCO2)c1ccccn1	> 38 µM (inactive)
Oc1ccc(/C=N/n2c(-c3ccccc3)n[nH]c2=S)cc1Br	13.1 µM
Cc1ccc(N2C(=O)NC(=O)/C(=C\c3ccc([N+](=O)[O-])o3)C2=O)cc1	6.08 µM
COc1ccc(Cn2c(O)c(/C=N/NC(=O)c3ccccc3O)c(=O)[nH]c2=O)cc1	6.41 µM
Cc1ccc(S(=O)(=O)N/N=C/c2ccc(O)c(O)c2)cc1[N+](=O)[O-]	27 µM
COc1ccc(CN2C(=O)NC(=O)/C(=C\c3ccco3)C2=O)cc1	38.7 µM
Cc1ccnc(N2C(=O)c3cccc4c([N+](=O)[O-])ccc(c34)C2=O)c1	14.8 µM
Cc1oc2c(cc(NS(=O)(=O)c3ccc(C(C)C)cc3)c3ccccc32)c1C(=O)O	5.37 µM
Cc1ccc(N=C2NC(=O)/C(=C\c3ccc(C)s3)S2)cc1	> 38 µM (inactive)
CC1=NOC(=O)/C1=C/c1ccc2c(c1)OCO2	> 38 µM (inactive)
CCOC(=O)C1CCN(c2nc(N)c3c(N)nc(SCC(=O)O)cc3c2C#N)CC1	20.1 µM
CC(=O)Nc1ccc(S(=O)(=O)NNC(=O)C(=O)NNc2ccccn2)cc1	0.621 µM
Oc1ccc(Br)cc1C=Nc1cccn2cc(-c3ccccc3)nc12	> 38 µM (inactive)
O=C1c2ccccc2C(=O)N1/N=C/c1ccc(O)c(O)c1O	0.798 µM
Nc1cc2c3c(cccc3c1)C(=O)N(CCN1CCCC1)C2=O	16 µM
O=C(CN1C(=O)/C(=C/c2ccco2)SC1=S)Nc1ccc(C(=O)O)c(O)c1	24.5 µM
COC(=O)c1cc(O)c(O)c(O)c1	25.4 µM
CCOC(=O)C(=NC(C)C)NNc1cc(Cl)ccc1Cl	> 38 µM (inactive)
N#CC(C#N)=NNc1ccc(S(N)(=O)=O)cc1	7.56 µM
CC(C)OC(=O)c1c2c(n3ccccc13)C(=O)c1ccccc1C2=O	19.1 µM
O=C(O)/C=C/C(=O)NNc1ncnc2ccccc12	22.2 µM

Structure (SMILES)	AC50
Cc1cccc(N=Nc2c(O)[nH]c3ccc(F)cc23)c1	4.46 µM
O=C1CS/C(=N\NC(=O)c2ccccc2)N1	12 µM
COc1ccc(N(C(=O)CCl)C(C)(C(=O)Nc2c(C)cccc2C)c2ccccn2)cc1 (stereo not drawn)	> 38 µM (inactive)
Cc1cc(C)cc(N2C(=O)NC(=O)/C(=C/c3cccn3-c3ccc(Cl)cc3)C2=O)c1	> 38 µM (inactive)
COc1ccc(NC(=S)NNc2ccc(S(=O)(=O)Nc3ccccc3C(=O)O)cc2[N+](=O)[O-])cc1	6.28 µM
CCc1nnc(NC(=O)CCN2C(=O)/C(=C/c3cc(OC)c(OC)c(OC)c3)SC2=S)s1	> 38 µM (inactive)
O=C(O)CCCCCN1C(=O)C(O)=C(C(=O)/C=C/c2ccccc2)C1c1ccccc1[N+](=O)[O-] (stereo not drawn)	> 38 µM (inactive)
Cn1c(O)c(/C=N/NC(=O)c2cc3ccccc3cc2O)c2ccccc21	5.01 µM
CCOc1ccc2nc(N3CCCN(C(=O)Nc4ccccc4C)CC3)c(C#N)cc2c1	22.8 µM
COc1cccc(/C(O)=C/c2nc3ccc(C(=O)NCCc4ccc(Cl)cc4)cc3[nH]c2=O)c1	23.3 µM
COc1ccc(/C=C2\C(=O)NC(=S)N2C(=O)c2ccc(C)cc2)cc1	> 38 µM (inactive)
COCCCNC(=O)c1ccc2c3c(onc13)-c1ccccc1C2=O	< 0.3 µM
Cc1ccc(-c2cc(C(=O)O)c3cc(Br)ccc3n2)o1	> 38 µM (inactive)
O=c1ccc2cc3c([nH]c4ccc(Br)cc43)oc-2c1O	3.77 µM
COc1cccc(OCC(=O)NNC(=O)c2cnccn2)c1	0.315 µM
COc1ccc(Cn2c3ccc(OC)cc3c3nc4ccccc4nc32)cc1	22.9 µM
CN(C)C1C(=O)C(C(N)=O)=C(O)C2(O)C(=O)C3=C(O)c4c(O)cccc4C(C)(O)C3CC12 (stereo not drawn)	> 38 µM (inactive)
Nc1c(C(=O)C2CC2)sc2nc(-c3cccs3)cc(C(F)(F)F)c12	> 38 µM (inactive)
O=C(CCN1C(=O)/C(=C/c2ccco2)SC1=S)Nc1ccc(C(=O)O)c(O)c1	30.6 µM
O=C1OC(/C(=C\Nc2cc(Cl)ccc2O)[N+](=O)[O-])c2ccccc21 (stereo not drawn)	12.4 µM
CSc1nc(N)c(N=Nc2ccc([As](=O)(O)O)cc2)c(=O)[nH]1	17.7 µM
O=C(O)CCCC(=O)NNc1nc(-c2ccccc2)c2cc(Cl)ccc2n1	13.3 µM
COc1ccc2cc(N=Cc3nc(-c4ccc(C)cc4)oc3O)cnc2c1	> 38 µM (inactive)
O=C(Cc1cccs1)Nc1nnc(SCc2ccc(Br)cc2)s1	> 38 µM (inactive)
C[n+]1c2ccccc2nc2ccc(NCCO)cc21	30.6 µM
O=c1[nH]c(-[n+]2ccccc2)c(/C=N/NC([S-])=Nc2ccccc2)s1	15.1 µM

Structure (SMILES)	AC50
Cc1ccc(O)c(C(=O)c2cc(C#N)c(=O)n(-c3nccs3)c2)c1	14.2 µM
CC1(OC(=O)c2ccc(Cl)nc2)C(=O)C=C2C=C(c3ccc(C#N)cc3)OC=C2C1=O (stereo not drawn)	20 µM
O=C(O)c1ccccc1NS(=O)(=O)c1cccc(-n2sc3ccccc3c2=O)c1	7.89 µM
CCN1C/C(=C/c2ccc(OC)c(O)c2)C(=O)/C(=C/c2ccc(OC)c(O)c2)C1	> 38 µM (inactive)
CN(C)[C@@H]1C(=O)C(C(N)=O)=C(O)[C@@]2(O)C(=O)C3=C(O)c4c(O)cccc4[C@@](C)(O)[C@H]3[C@H](O)[C@@H]12	12 µM
Cc1cc2n(n1)C(c1c[nH]c3ccccc13)Nc1ccccc1-2 (stereo not drawn)	> 38 µM (inactive)
CCOC(=O)c1cc(C#N)c(SCC(N)=O)[nH]c1=O	> 38 µM (inactive)
O=c1cc2c(=O)oc3cc(O)c(O)oc3c2c(O)c1O	3 µM
COc1cc(OC)c(OC)cc1/C=C1/Cc2ccccc2C1=O	8.04 µM
O=S(=O)(Nc1ccc(O)c(NS(=O)(=O)c2ccccc2)c1)c1ccccc1	6.92 µM
N=c1c(C(=O)NCC2CCCO2)cc2c(=O)n3ccccc3nc2n1Cc1ccc(Cl)cc1 (stereo not drawn)	> 38 µM (inactive)
Cc1cc[n+](-c2[nH]c(=O)sc2/C=N/N=C(\[O-])c2ccncc2)cc1	29.4 µM
CCN(CC)C(=O)Cn1c(=O)c2ccccc2n2c(=S)sc(-c3cccc(C)c3)c12	17.2 µM
COC/C=C/C1=CC2=CC(=O)C(C)(OC(=O)c3cnc4ccccc4n3)C(=O)C2=CO1 (stereo not drawn)	17.4 µM
CCc1ccc(N2C(=O)NC(=O)/C(=C/c3cccn3CCOc3ccc(C(C)CC)cc3)C2=O)cc1 (stereo not drawn)	> 38 µM (inactive)
O=C(O)c1cc(-c2ccc(/C=c3\sc4nc5ccc(Br)cc5n4c3=O)o2)ccc1Cl	5.15 µM
COC(=O)/C=C1/S/C(=N/NC(=O)c2ccc(Cl)cc2Cl)NC1=O	22.4 µM
CCOC(=O)c1ccc(N=Nc2c(C)c(C#N)c(O)[nH]c2=O)cc1	13.3 µM
Cc1nn(C)cc1C(=O)NNC(=S)Nc1ccccc1	19.5 µM
O=C(O)C1Nc2c(Cl)cc(Cl)cc2C2C=CCC12 (stereo not drawn)	33.2 µM
Cc1nc2c3ccccc3nc(NNC(=O)CCC(=O)NC(C)C)n2n1	< 0.3 µM
O=C(N/N=C/c1c(O)n(Cc2ccccc2)c(=O)[nH]c1=O)c1ccccc1O	10.5 µM
Cc1cccc2cc3c(N)c(C(=O)N4CCCc5ccccc54)sc3nc12	19.9 µM
Cc1nc2ccc3nc(NC(=O)c4ccc5c(c4)OCCO5)sc3c2s1	> 38 µM (inactive)
CCOC(=O)/C=c1\s/c(=C\c2ccc3cc(OC)ccc3c2)c(=O)n1CC(=O)NCc1ccc2c(c1)OCO2	> 38 µM (inactive)
